Results reported in US8802104B2, “Parathyroid hormone receptor activation and stem and progenitor cell expansion” (The General Hospital Corporation, priority 2002, dated 2014).
Entries after “also recorded” stand apart in the source; their conditions may differ.

Tests used:
[1] = system: hematopoietic progenitors (CFU-C); assay: In vivo PTH administration: CFU-C assay; parameters: species or system C57Bl/6 mice; settings: four weeks PTH; P=0.780, FIG. 5g
Experimental: Mononuclear cells were isolated from the bone marrow and cultured at 10^4 cells/ml in the following medium: 0.9% methylcellulose, 15% FBS, 1% BSA, 10 μg/ml rh insulin, 200 μg/ml human transferrin, 10^−4 M 2-mercaptoethanol, 2 mM L-glutamine, 50 ng/ml rmSCF, 10 ng/ml rmIL-3, 10 ng/ml rhIL-6 and 3 units/ml rhEpo (M3434; Stem Cell Technologies, Vancouver, Canada). At day 10, the total number of colonies were counted and reported as total CFU-Cs.
For PTH administration, 6-8 week old wild type C57/B male mice were used. Rat PTH (1-34) (80 μg/Kg of body weight) was injected intraperitoneally 5×/week for 4 weeks (n=5). Control mice (n=4) were injected with an equivalent volume of vehicle. At the end of the treatment period, ionized serum calcium was measured by the Ciba/Corning 634 Ca^++/pH analyzer, and, after euthanasia, the hind limbs and forelimbs were dissected and utilized for cytologic and histologic analysis.
As treatment of stromal cells with PTH led to an increase in the ability of the stromal cell population to support hematopoietic stem cells, it was investigated whether these effects could be recapitulated in vivo. Wild-type C57Bl/6 mice were injected daily with PTH using an intermittent dosing schedule known to increase osteoblasts, and the frequencies of LTC-ICs in the bone marrow were measured. […]

[2] = system: C57Bl/6 stroma and hematopoietic cells (LTC-IC); assay: LTC-IC assay on wild-type stroma, in vitro treatment with PTH; format: cell-based, mouse
Experimental: Murine bone marrow stromal cells from confluent cultures were irradiated (15Gy) and plated at a concentration of 20,000 cells/well in 96-well plates in long-term culture medium. Cells were then seeded into the plates in two-fold serial limiting dilutions and cultured at 33° C./5% CO2 in a humidified atmosphere. Cultures were maintained for 5 weeks, changing half of the medium in the wells weekly. Following this, the medium was replaced with methylcellulose containing medium supplemented with recombinant cytokines as described above, then scored for colony growth ten days following the addition of the medium.
LTC-IC assays were performed using wild-type stroma and hematopoietic cells. […] After fixation in 10% Neutral Formalin Buffer for 30 minutes at room temperature, alkaline phosphatase activity was determined histochemically by incubation for 45 minutes at RT with a mixture of 0.1 mg/ml naphthol AS-MX phosphate (Sigma), 0.5% N,N-dimethylformamide, 0.6 mg/ml red violet LB salt (Sigma) in 0.1 M Tris-HCl (pH 8.5). Alkaline phosphatase positive cells were counted at day 10 of culture, when the cultures were subconfluent and individual cells could be identified. […]

[3] = system: C-1498/GFP leukemia cells; assay: Leukemia outgrowth in niche-stimulated animals; format: in vivo, mice
Text: The kinetics of leukemia cell engraftment, growth, and maturation were studied in normal mice. In an effort to analyze the growth and fate of C-1498 leukemia cells transplanted into mice, the cells were transduced with a retrovirus expressing GFP(C-1498/GFP). This allows easy tracking of these cells in vivo using GFP as a marker (FIG. 9a). The acute myelogenous leukemia cell line C-1498, a spontaneously-arising acute myelomonocytic leukemia derived from C57/BL6 (H2-b) mice, is easily transplantable, can be cultured in vitro, and infected with retroviruses.
Attention was subsequently directed to determining how activation of the stem cell niche with PTH might affect leukemia growth and maturation. To investigate the kinetics of leukemia outgrowth in “niche-stimulated” animals, animals were pre-stimulated with PTH at 80 μg/kg/day (versus saline alone) for one month. Mice were then lethally irradiated at 10 Gray, and then transplanted with 50,000 leukemia cells (GFP+) and 1×10^6 normal bone marrow cells (GFP-) (FIG. 10a). At 15 days post-transplantation, bone marrow was harvested, and, then, GFP-positive cells were scored as percentage and in absolute number. Since the absolute number of total cells was not statistically different between both groups, only the percentage figures are shown in FIG. 10b, left panel.
In mock-treated animals, osteoblasts and osteoprogenitors, identified at PTH-receptor positive cells, were found lining the endostial surfaces of bone.

Substance: Rat PTH (1-34)
- level of hematopoietic progenitors by CFU-C assay [1]: did not affect
- ability of stroma to support LTC-ICs ([2]; PTH 10^-7 M present during expansion of the stromal population, P=0.004, FIG. 5a): enhanced the ability of the stroma to support LTC-ICs; also recorded: increasing LTC-IC
- LTC-IC support ([2]; stromal cells expanded in the absence of PTH, or PTH added at the same time as the hematopoietic cells): the effect was not seen
- localisation of PTH-r positive cells (osteoblasts, osteoprogenitors) ([3]; 10 micron bone sections, PTH-treated animals): migrated extensively into the marrow
- GFP-positive leukemia cells in bone sections (histology) ([3]; 10 micron bone sections, PTH-treated vs mock-treated): markedly reduced
- number of GFP-positive leukemia initiating cells in bone marrow ([3]; PTH 80 μg/kg/day one month pre-stimulation, 15 days post-transplantation, 3 of 3 experiments): markedly reduced
- kinetics of normal hematopoiesis ([3]; PTH treated animal, FIG. 11): did not change
